Measured values taken from patent publication US11752111B2, “Use of cannabidivarin in the treatment of autism spectrum disorder, associated disorders and schizophrenia” (GW Research Limited, priority 2016, dated 2023).

Assays:
[1] = test system: MeCP2 KO mice; test: Body weight gain in Rett syndrome model; assay type: in vivo, mouse
Protocol: CBDV was administered daily at the dose of 2, 20 and 200 mg/kg i.p. starting from PND 28 and the following signs were scored every other day: hindlimb clasping (indication of motor imbalance), tremor, gait (measure of coordination), breathing, mobility and general condition.
The CBDV was dissolved in ethanol, cremophor and saline (1:1:18).
Starting from PND 28, mice received a daily intraperitoneal injection of CBDV (or vehicle) at the dose of 2, 20 and 200 mg/kg. Animals were then scored every other day to evaluate the effect of CBDV treatment on motor symptoms (hindlimb clasping, gait, mobility) as well as neurological signs and general conditions (breathing abnormalities, tremors and general condition) present in MeCP2 knockout (KO) mice.

[2] = test system: Ube3am-/p+ (AS) mice; test: Novel object recognition in Angelman syndrome model; assay type: in vivo, mouse; details: CBDV 20 mg/kg i.p.; AS mice at 7-8 weeks vs AS vehicle
Protocol: Heterozygous mice with maternal deficiency of Ube3A (Ube3am−/p+) and wild type (Ube3am+/p+) were purchased from The Jackson Laboratory (Jackson code: B6.129S7-Ube3a tm1Alb/J) and maintained in a C57BL/6 background.
Drugs were dissolved in 1:1:18 ethanol:cremophor:0.9% saline, for intraperitoneal (i.p.) administration. Drug treatment was performed daily for 35 days. CBDV was administered at 20 mg/kg.
Novel Object Recognition: The novel object recognition assesses recognition memory in mice. The experiment started with the habituation period, during which mice were allowed to freely explore for 1 hour the apparatus which consists of a rectangular open box (40×30×30 cm width×length×height) made of grey polyvinyl chloride (PVC) illuminated by a dim light. The day after each mouse was allowed to explore two identical objects positioned in the back left and right corners for 5 min (acquisition). A video camera recorded the time spent on exploration of each object. […] The behaviour of mice was analyzed by an observer blind to the treatment. Data are expressed as percentage of recognition index (RI %), which was calculated as the percentage of the time spent exploring the novel object/time spent exploring the novel object+time spent exploring the familiar object×100.

[3] = test system: PCP-treated rats; test: Social interaction test, sub-chronic PCP model of schizophrenia; assay type: in vivo, rat
Protocol: Female hooded-Lister rats were used for this experiment. Rats were housed in groups of 5 under standard laboratory conditions under a 12 hr light: dark cycle, lights on at 0700 hr. Testing was carried out in the light phase.
Rats were randomly assigned to two treatment groups and treated with vehicle, n=20 (distilled water, i.p.) or Phencyclidine hydrochloride (PCP), n=100 (2 mg/kg, i.p. twice daily for 7-days). PCP was dissolved in distilled water. This was followed by a 7-day wash out period before the rats were tested following acute treatment with CBDV, risperidone or vehicle.
Risperidone (0.1 mg/kg) was dissolved in a minimum volume of acetic acid, made up to volume with distilled water and pH adjusted to 6 with 0.1M NaOH and administered via the i.p. route in a volume of 1 ml/kg, 60 min prior to testing.
CBDV at 2, 10 or 20 mg/kg was dissolved in 2:1:17 (Ethanol:Cremofor:Saline 0.9%) and administered via the i.p. route in a volume of 5 ml/kg, 60 min prior to testing.
The social interaction test is performed in an open-field comprising a square box made of Plexiglas (52×52×31 cm) placed 27 cm above the floor on a moveable trolley. The floor of the box is white with black gridlines forming 9 identical squares on it. All other walls are black. A video camera connected to a video recorder and monitor is positioned above the box. The object used for the test consists of a heavy structure made of metal that cannot be displaced by the animals.
The rats were habituated to the test environment and arena prior to the test day. Habituation consists of placing all rats from one cage together in the empty test arena for one hour for three days including the day before the test day.
Pairs of rats, weight matched (15-20 g) and unfamiliar to each other, receiving either no treatment (n=70 “conspecific” rats) or different treatments (PCP and Vehicle; n=10 “tested” rats or PCP+Drug; n=50 “tested” rats) were placed in the test arena together for 10 min and behaviour assessed as described below.
An inanimate object such as an unopened drinks can is also placed in the centre of the arena to measure any differences in interaction of the test animal with an unfamiliar animal as opposed to an unfamiliar object. After each 10 minute trial, the object and arena are cleaned with 10% alcohol in an attempt to remove traces of any olfactory cues. All testing is carried out under standard room illumination levels (70 cd/m2).
Behaviour in both trials was recorded on video for subsequent blind scoring. A behavioural scoring software program (Hindsight, Scientific programming services) is used to score the following parameters: • Investigative sniffing behaviour: sniffing the conspecific's snout or parts of the body including the anogenital region; • Following: rat moves after the conspecific i.e. a vehicle treated rat of the same species, around the arena; • Avoidances: actively turning away when approached by the conspecific animal; • Investigation of object: exploration of object placed in centre of the arena; and • Locomotor activity is recorded by counting the total number of sectors (i.e. lines) crossed by the test rat. Results

[4] = test system: animal models of seizure; details: in vivo; cited from earlier work

In the case of `C=C(C)[C@@H]1CCC(C)=C[C@H]1c1c(O)cc(CCC)cc1O` [CBDV, Cannabidivarin], the “body weight gain (FIG. 4A)” value ([1]; 2, 20 and 200 mg/kg i.p. daily PND 28-66, MeCP2 KO mice) is reported as “partially prevent the reduction in body weight”, the “body weight, area under the curve (FIG. 4B)” value ([1]; KO mice) is reported as “significantly rescued body weight” and the “body weight, area under the curve (FIG. 4B)” value ([1]; WT controls) is reported as “without affecting body weight”. For the same compound, the “discrimination index, novel object recognition (FIG. 13)” value [2] was “significantly increased the discrimination index”, the “time spent avoiding the other rat (FIG. 18C)” value ([3]; CBDV 20 mg/kg) was “reduce the amount of time” and the “time spent following the other rat (FIG. 18B)” value ([3]; CBDV 20 mg/kg) was “increased the amount of time”. The “time spent sniffing the other rat (FIG. 18A)” value ([3]; CBDV 10 and 20 mg/kg) was “significantly increased”, the “PCP effects on social interaction (sniffing, following, avoiding) (FIG. 18)” value ([3]; CBDV acute i.p.) was “reverse these effects in a statistically significant manner” and the “efficacy in animal models of seizure” value [4] was “effective”.
